Drawing on ChEMBL document CHEMBL5715954, “Silencing c-Myc translation as a therapeutic strategy through targeting PI3Kδ and CK1ε in hematological malignancies” (Blood, 2017), this text covers Activity for three compounds.

SMILES strings stand for the structures.

Set-up in all cases: scale not given: the % may be the effect or the level left
The target in assay [1] is T1, Dual specificity tyrosine-phosphorylation-regulated kinase 4 (Homo sapiens) (UniProt Q9NR20).
T1 sequence (whole entry): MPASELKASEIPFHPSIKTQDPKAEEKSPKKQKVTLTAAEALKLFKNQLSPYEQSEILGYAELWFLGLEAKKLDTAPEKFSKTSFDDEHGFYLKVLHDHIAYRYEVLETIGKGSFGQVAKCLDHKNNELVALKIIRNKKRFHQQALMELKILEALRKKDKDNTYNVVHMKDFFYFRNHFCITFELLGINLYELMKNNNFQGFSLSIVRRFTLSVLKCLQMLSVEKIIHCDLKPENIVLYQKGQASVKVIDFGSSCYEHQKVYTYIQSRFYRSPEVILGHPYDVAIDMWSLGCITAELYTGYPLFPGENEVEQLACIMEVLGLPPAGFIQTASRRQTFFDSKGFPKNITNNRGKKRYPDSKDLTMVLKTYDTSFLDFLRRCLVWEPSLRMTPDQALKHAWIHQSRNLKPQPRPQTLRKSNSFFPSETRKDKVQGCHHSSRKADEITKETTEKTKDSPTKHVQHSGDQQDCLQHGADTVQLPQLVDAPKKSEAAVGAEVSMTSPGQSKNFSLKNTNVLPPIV
Description: Inhibition of human DYRK4 assessed as enzyme activity at 1 uM using RRRFRPASPLRGPPK as substrate preincubated for 20 mins followed by [gamma-33P]-ATP addition and measured after 120 mins by radiometric Hot-SpotSM Kinase assay relative to control.

Assay [2] concerns the target T2, Myosin light chain kinase (Homo sapiens) (UniProt Q32MK0).
T2 sequence (whole entry): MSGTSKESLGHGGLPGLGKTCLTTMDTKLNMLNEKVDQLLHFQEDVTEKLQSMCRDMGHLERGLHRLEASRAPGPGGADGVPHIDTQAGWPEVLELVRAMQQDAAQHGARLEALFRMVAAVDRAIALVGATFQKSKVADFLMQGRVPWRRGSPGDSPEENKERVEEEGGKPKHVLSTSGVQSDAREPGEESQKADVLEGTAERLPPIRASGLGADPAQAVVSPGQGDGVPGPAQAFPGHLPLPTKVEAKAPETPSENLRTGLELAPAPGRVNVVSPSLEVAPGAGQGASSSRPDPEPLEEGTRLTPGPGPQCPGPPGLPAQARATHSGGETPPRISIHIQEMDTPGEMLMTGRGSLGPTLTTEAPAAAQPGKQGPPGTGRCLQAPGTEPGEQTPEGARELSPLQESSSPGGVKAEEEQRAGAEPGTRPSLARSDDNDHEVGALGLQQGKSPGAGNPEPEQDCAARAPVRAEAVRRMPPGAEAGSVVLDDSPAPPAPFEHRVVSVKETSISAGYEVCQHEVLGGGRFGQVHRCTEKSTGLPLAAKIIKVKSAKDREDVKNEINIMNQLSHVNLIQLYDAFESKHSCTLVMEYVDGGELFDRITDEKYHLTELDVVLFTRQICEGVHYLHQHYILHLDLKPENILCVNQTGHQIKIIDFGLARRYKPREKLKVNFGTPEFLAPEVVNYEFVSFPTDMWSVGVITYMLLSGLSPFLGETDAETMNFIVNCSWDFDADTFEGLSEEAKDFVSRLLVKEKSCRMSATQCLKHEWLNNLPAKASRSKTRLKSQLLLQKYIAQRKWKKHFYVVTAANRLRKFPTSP
As to the kind of experiment: Inhibition of human MYLK3 assessed as enzyme activity at 1 uM using KKRPQRRYSNVF as substrate preincubated for 20 mins followed by [gamma-33P]-ATP addition and measured after 120 mins by radiometric Hot-SpotSM Kinase assay relative to control.

Assay [3] concerns the target Serine/threonine-protein kinase PLK1 (Homo sapiens) (UniProt P53350). As to the kind of experiment: Inhibition of human PLK1 assessed as enzyme activity at 1 uM using casein as substrate preincubated for 20 mins followed by [gamma-33P]-ATP addition and measured after 120 mins by radiometric Hot-SpotSM Kinase assay relative to control.
The target in assay [4] is T3, Serine/threonine-protein kinase tousled-like 1 (Homo sapiens) (UniProt Q9UKI8).
T3 sequence (whole entry): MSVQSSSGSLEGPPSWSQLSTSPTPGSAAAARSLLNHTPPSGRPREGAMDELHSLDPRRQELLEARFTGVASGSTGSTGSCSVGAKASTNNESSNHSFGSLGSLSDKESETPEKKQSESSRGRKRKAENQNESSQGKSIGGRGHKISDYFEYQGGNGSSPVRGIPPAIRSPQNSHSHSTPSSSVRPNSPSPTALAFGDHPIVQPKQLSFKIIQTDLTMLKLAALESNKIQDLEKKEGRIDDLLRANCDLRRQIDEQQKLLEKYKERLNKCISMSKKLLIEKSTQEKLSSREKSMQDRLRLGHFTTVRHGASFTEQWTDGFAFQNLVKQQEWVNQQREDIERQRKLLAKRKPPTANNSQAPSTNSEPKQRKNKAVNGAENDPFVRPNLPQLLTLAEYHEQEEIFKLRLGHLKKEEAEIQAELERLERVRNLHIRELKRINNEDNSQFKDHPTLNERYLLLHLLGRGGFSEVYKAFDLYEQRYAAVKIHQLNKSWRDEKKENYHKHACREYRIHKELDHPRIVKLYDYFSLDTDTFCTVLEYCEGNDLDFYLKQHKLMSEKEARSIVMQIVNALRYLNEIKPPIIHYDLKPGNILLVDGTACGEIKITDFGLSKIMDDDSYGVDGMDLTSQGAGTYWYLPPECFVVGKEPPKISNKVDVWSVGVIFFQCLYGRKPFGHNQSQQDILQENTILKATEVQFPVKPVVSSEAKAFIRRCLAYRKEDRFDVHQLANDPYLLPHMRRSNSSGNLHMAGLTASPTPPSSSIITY
Description: Inhibition of human TLK1 assessed as enzyme activity at 1 uM using histone H3 as substrate preincubated for 20 mins followed by [gamma-33P]-ATP addition and measured after 120 mins by radiometric Hot-SpotSM Kinase assay relative to control.

Serine/threonine-protein kinase PLK1 (Homo sapiens), sequence (P53350 whole entry): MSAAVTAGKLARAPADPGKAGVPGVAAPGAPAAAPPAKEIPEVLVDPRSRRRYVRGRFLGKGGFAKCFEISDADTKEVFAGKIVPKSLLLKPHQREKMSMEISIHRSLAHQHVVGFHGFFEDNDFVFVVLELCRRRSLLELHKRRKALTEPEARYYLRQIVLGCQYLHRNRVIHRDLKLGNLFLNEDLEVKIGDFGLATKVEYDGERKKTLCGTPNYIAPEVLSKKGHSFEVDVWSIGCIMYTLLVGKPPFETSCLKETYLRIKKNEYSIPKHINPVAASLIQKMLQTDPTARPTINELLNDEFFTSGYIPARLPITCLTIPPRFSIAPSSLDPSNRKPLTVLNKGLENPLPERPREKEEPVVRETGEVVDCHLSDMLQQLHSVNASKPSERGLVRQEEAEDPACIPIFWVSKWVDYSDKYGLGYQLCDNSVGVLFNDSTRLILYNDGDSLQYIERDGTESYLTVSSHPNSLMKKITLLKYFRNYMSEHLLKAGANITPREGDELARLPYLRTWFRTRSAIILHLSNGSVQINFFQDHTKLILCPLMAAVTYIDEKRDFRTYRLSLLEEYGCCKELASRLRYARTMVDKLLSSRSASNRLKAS

Take `C[C@H](Nc1ncnc2nc[nH]c12)c1cc2cccc(Cl)c2c(=O)n1-c1ccccc1`: the Activity in assay [1] amounted to 97.1%; in assay [2], 98.2%; in assay [3], 94%; in assay [4], 105%.

`CC[C@H](Nc1ncnc2[nH]cnc12)c1nc2cccc(F)c2c(=O)n1-c1ccccc1`: the Activity in assay [1] amounted to 100%; in assay [2], 91.8%; in assay [3] it was 95.4%; in assay [4] it was 100%.

With `CC(C)Oc1ccc(-c2nn([C@@H](C)c3oc4ccc(F)cc4c(=O)c3-c3cccc(F)c3)c3ncnc(N)c23)cc1F` [UMBRALISIB], the Activity worked out at 98.8% in assay [1], 105% in assay [2], 98.4% in assay [3] and 102% in assay [4].
